Patent publication US20240277617A1, “NANOTECHNOLOGICAL PLATFORM BASED ON POLYURETHANE/POLYUREA CHEMISTRY TO FURNISH WATER-OIL-WATER MULTI WALLED AND FUNCTIONALIZABLE NANOCAPSULES AND THEIR PREPARATION PROCESS” (ECOPOL TECH SL, priority 2021, published 2024)

Assays:
[1] = tested on: A375 Human Melanoma cell line; assay: In vivo fluorescence imaging biodistribution in subcutaneous tumor mice; conditions: i.v. at day 14 post-tumor challenge; from 3 to 9-days after NCs injection
Method: A model of immunodepressed mice have been used to conduct this experiment. Female NSG mice (9 weeks old, Charles River) were challenged by subcutaneous (s.c). injection of A375 Human Melanoma cell line (1×10^6) cells on the right flank with a 23-gauge needle. Amphoteric ICG-NCs and cationic ICG-NCs were administered i.v. at day 14 post-tumor challenge. PBS and ICG free was injected to control groups. Fluorescence was monitoring by in vivo imaging system (IVIS; Perkin Elmer, Waltham, MA, USA) using excitation/emission wavelength of 780 nm/845 nm.

[2] = Acute toxicity analysis (haematological and biochemical parameters) after i.v. administration; design: species or system BALB/C mice; conditions: mouse, in vivo, iv
Method: Encapsulated non-loaded NCS nanocapsules (cationic and amphoteric nanocapsules) were i.v. administered to female BALB/C mice (8 weeks old; Charles River) at three different doses. Blood and serum samples were obtained at 24 h post-administration for acute toxicity analysis (SBCV and SHCV, Universidad Autónoma de Barcelona).
Haematological parameters analysed in blood included white blood cells (WBC) count, red blood cells (RBC) count, haemoglobin (HGB), red blood cell specific volume (HCT), mean corpuscular volume (MCV), mean corpuscular haemoglobin (MCH), mean corpuscular haemoglobin concentration (MCHC), platelet (PLT), lymphocytes (LYMPH), monocytes (MONO), neutrophils (NEU), eosinophils (EO), and basophils (BASO).
Biochemical parameters detected in serum included albumin, alanine aminotransferase (ALT), aspartate aminotransferase (AST), total bilirubin levels (TBIL), creatinine (CREA), gamma-glutamyl transferase (GGT), potassium, total proteins, sodium, and urea.
Encapsulated or free R848 was i.v. administered to female BALB/C mice (8 weeks old; Charles River) at three different doses. Blood and serum samples were obtained at 24 h post-administration for acute toxicity analysis (SBCV and SHCV, Universidad Autónoma de Barcelona).

Compound | fluorescence signal / accumulation in tumor locations [1] | biochemical parameters in serum with respect to untreated groups [2] | haematological parameters with respect to untreated groups [2]
CC1(C)C(/C=C/C=C/C=C/C=C2\N(CCCCS(=O)(=O)[O-])c3ccc4ccccc4c3C2(C)C)=[N+](CCCCS(=O)(=O)[O-])c2ccc3ccccc3c21.[Na+] [ICG, Indocyanine Green] | low |  | 
CCOCc1nc2c(N)nc3ccccc3c2n1CC(C)(C)O [Sample R848, Resiquimod] |  | No significant differences | No significant differences
